In patent US8551999B2, “Heterocyclic compound and pharmaceutical composition thereof” (Otsuka Pharmaceutical Co., Ltd., priority 2007, dated 2013):

First: C[C@@H]1CN(Cc2ccccn2)CCN1C(=O)c1cc2cc(Oc3ccc(NC(=O)c4ccc(C(F)(F)F)cc4)cn3)ccc2n1C.O=C(O)C(=O)O.O=C(O)C(=O)O [Example 392, N-{6-[1-Methyl-2-((R)-2-methyl-4-pyridin-2-ylmethylpiperazine-1-carbonyl)-1H-indol-5-yloxy]pyridin-3-yl}-4-trifluoromethyl-benzamide dioxalate]
Second: COc1ccc(CN2CCN(C(=O)c3cc4cc(Oc5ccc(NC(=O)c6ccc(C(F)(F)F)cc6)cn5)ccc4n3C)[C@@H](C)C2)cc1.O=C(O)C(=O)O [Example 396, N-(6-{2-[(S)-4-(4-Methoxybenzyl)-2-methylpiperazine-1-carbonyl]-1-methyl-1H-indol-5-yloxy}pyridin-3-yl)-4-trifluoromethyl-benzamide oxalate]
The melting point of the first is lower: 128 to 130 °C for the first, 159 to 160 °C for the second.

First: Cl.Cn1c(C(=O)N2CCN(Cc3ccc(OCC(F)(F)F)cc3)CC2)cc2ccc(Oc3ncc(NC(=O)c4ccc(C(F)(F)F)cc4)cn3)cc21
Second: Br.Cn1c(C(=O)N2CCN(Cc3ccc(OCC(F)F)cc3)CC2)cc2cc(Oc3ccc(NC(=O)c4ccc(C(F)(F)F)cc4)cn3)ccc21 [Example 462, N-[6-(2-{4-[4-(2,2-Difluoroethoxy)benzyl]piperazine-1-carbonyl}-1-methyl-1H-indol-5-yloxy)pyridin-3-yl]-4-trifluoromethyl-benzamide hydrobromide]
The melting point of the first is higher: 250.8 to 254.2 °C for the first, 229.1 to 230.8 °C for the second.

Compared with `Br.CN(C(=O)c1ccc(Cl)c(Cl)c1)c1ccc(Oc2ccc3cc(C(=O)N4CCN(Cc5ccc(OCCF)cc5)CC4)n(C)c3c2)nc1` [Example 482, 3,4-Dichloro-N-[6-(2-{4-[4-(2-fluoroethoxy)benzyl]piperazine-1-carbonyl}-1-methyl-1H-indol-6-yloxy)pyridin-3-yl]-N-methyl-benzamide hydrobromide], `CCOc1ccc(CN2CCN(C(=O)c3cc4cc(Oc5ccc(N(C)C(=O)c6ccc(Cl)c(Cl)c6)cn5)ccc4n3C)CC2)cc1.CS(=O)(=O)O` [Example 361, 3,4-Dichloro-N-(6-{2-[4-(4-ethoxybenzyl)piperazine-1-carbonyl]-1-methyl-1H-indol-5-yloxy}pyridin-3-yl)-N-methylbenzamide methanesulfonate] is lower in melting point: 186.9 to 188.8 °C for the first, 168 to 170 °C for the second.

First: CCN(c1ccc(Oc2ccc3cc(C(=O)N4CCN(Cc5ccc(OCC(F)(F)F)cc5)CC4)n(C)c3c2)nc1)S(=O)(=O)c1ccc(Cl)c(Cl)c1.Cl
Second: CC(C)N(c1ccc(Oc2ccc3cc(C(=O)N4CCN(Cc5ccc(OCC(F)(F)F)cc5)CC4)n(C)c3c2)nc1)S(=O)(=O)c1ccc(Cl)c(Cl)c1.Cl
The melting point of the first is lower: 226.9 to 227.2 °C for the first, 232.8 to 235.6 °C for the second.

First: Cc1ccc(S(=O)(=O)N(C)c2ccc(Oc3ccc4cc(C(=O)N5CCN(Cc6ccc7c(c6)OCO7)CC5)n(C)c4c3)nc2)cc1.Cl
Second: CN(c1ccc(Oc2ccc3cc(C(=O)N4CCN(Cc5ccc6c(c5)OC(F)(F)O6)CC4)n(C)c3c2)nc1)S(=O)(=O)c1ccc(Cl)c(Cl)c1 [Example 508, 3,4-Dichloro-N-(6-{2-[4-(2,2-difluorobenzo[1,3]dioxol-5-yl-methyl)piperazine-1-carbonyl]-1-methyl-1H-indol-6-yloxy}pyridin-3-yl)-N-methylbenzenesulfonamide]
The melting point of the first is higher: 242 to 249 °C for the first, 149.9 to 151.3 °C for the second.

Compared with `Br.CCCOc1ccc(CN2CCN(C(=O)c3cc4c(C)c(Oc5ccc(N(C)C(=O)c6ccc(C(F)(F)F)cc6)cn5)ccc4n3C)CC2)cc1` [Example 434, N-(6-{1,4-Dimethyl-2-[4-(4-propoxybenzyl)piperazine-1-carbonyl]-1H-indol-5-yloxy}pyridin-3-yl)-N-methyl-4-trifluoromethyl-benzamide hydrobromide], `Br.CC(C)c1ccc(CN2CCN(C(=O)c3cc4ccc(Oc5ccc(N(C)C(=O)c6ccc(C(F)(F)F)cc6)cn5)cc4n3C)CC2)cc1` [Example 429, N-(6-{2-[4-(4-Isopropylbenzyl)piperazine-1-carbonyl]-1-methyl-1H-indol-6-yloxy}pyridin-3-yl)-N-methyl-4-trifluoromethylbenzamide hydrobromide] is higher in melting point: 204 to 208 °C for the first, 255 to 258 °C for the second.

First: Cn1c(C(=O)N2CCN(C(=O)c3ccccn3)CC2)cc2cc(Oc3ccc(NC(=O)c4ccc(C(F)(F)F)cc4)cn3)ccc21 [Example 239, N-(6-{1-Methyl-2-[4-(pyridine-2-carbonyl)piperazine-1-carbonyl]-1H-indol-5-yloxy}pyridin-3-yl)-4-trifluoromethylbenzamide]
Second: COc1ccc(CN2CCN(C(=O)c3cc4cc(Oc5ccc(N(C)C(=O)c6ccc(C(F)(F)F)cc6)cn5)ccc4n3C)CC2)nc1.O=C(O)/C=C\C(=O)O [Example 387, N-(6-{2-[4-(5-Methoxypyridin-2-ylmethyl)piperazine-1-carbonyl]-1-methyl-1H-indol-5-yloxy}pyridin-3-yl)-N-methyl-4-trifluoromethyl-benzamide maleate]
The melting point of the first is higher: 162 to 164 °C for the first, 143 to 144 °C for the second.

First: Cc1cc(C)c(S(=O)(=O)Nc2ccc(Oc3ccc4cc(C(=O)N5CCN(Cc6ccc(OCC(F)(F)F)cc6)CC5)n(C)c4c3)nc2)c(C)c1.Cl
Second: CC(C)Oc1ccc(CN2CCN(C(=O)c3cc4ccc(Oc5ncc(N(C)S(=O)(=O)c6ccc(C(F)(F)F)cc6)cn5)cc4n3C)CC2)cc1 [Example 42, N-(2-{2-[4-(4-Isopropoxybenzyl)piperazine-1-carbonyl]-1-methyl-1H-indol-6-yloxy}pyrimidin-5-yl)-N-methyl-4-trifluoromethyl-benzenesulfonamide]
The melting point of the first is higher: 191.3 to 192.5 °C for the first, 186.6 to 187.3 °C for the second.

Compared with `Br.Cn1c(C(=O)N2CCN(Cc3ccc4c(c3)OCO4)CC2)cc2cc(Oc3ccc(NCc4ccc(Cl)c(Cl)c4)cn3)ccc21` [Example 333, (4-Benzo[1,3]dioxol-5-ylmethylpiperazin-1-yl)(5-{5-[(3,4-di-chlorophenyl)methylamino]pyridin-2-yloxy}-1-methyl-1H-indol-2-yl)methanone hydrobromide], `Br.CC(C)Cc1ccc(CN2CCN(C(=O)c3cc4ccc(Oc5ccc(NC(=O)c6ccc(Cl)c(Cl)c6)cn5)cc4n3C)CC2)cc1` [Example 260, 3,4-Dichloro-N-(6-{2-[4-(4-isobutylbenzyl)piperazine-1-carbonyl]-1-methyl-1H-indol-6-yloxy}pyridin-3-yl)benzamide hydrobromide] is higher in melting point: 205 to 214 °C for the first, 255.8 to 257.4 °C for the second.

In the case of `Br.CC(C)Oc1ccc(CN2CCN(C(=O)c3cc4ccc(Oc5ccc(NC(=O)c6ccc(OC(F)(F)F)cc6)cn5)cc4n3C)CC2)cc1` [Example 251, N-(6-{2-[4-(4-Isopropoxybenzyl)piperazine-1-carbonyl]-1-methyl-1H-indol-6-yloxy}pyridin-3-yl)-4-trifluoromethoxybenzamide hydrobromide], the melting point is reported as 265 to 267 °C (dec.).
In the case of `Br.CN(C(=O)c1ccc(C(F)(F)F)cc1)c1ccc(Oc2ccc3c(c2)cc(C(=O)N2CCN(Cc4ccc(C#N)cc4)CC2)n3C)nc1` [Example 339, N-(6-{2-[4-(4-Cyanobenzyl)piperazine-1-carbonyl]-1-methyl-1H-indol-5-yloxy}pyridin-3-yl)-N-methyl-4-trifluoromethylbenzamide hydrobromide], the melting point is reported as 251 to 255 °C (dec.).
